# From publication PMC10424242, “Macrocyclic Peptidomimetic Plasmepsin X Inhibitors with Potent In Vitro and In Vivo Antimalarial Activity” (Journal of Medicinal Chemistry, 2023)
# Read-outs that look alike come from different tables or passages of the source.
# Tests used:
# PMIV = PMIV (Plasmodium falciparum, UniProt Q8IM16); test: FRET-based PMIV inhibition assay; assay type: biochemical, P. falciparum
# Description: (§1) A fluorescence resonance energy transfer (FRET)-based assay was performed to assess the ability of the compounds to inhibit PMIV, CatD, and BACE1. Serial dilutions of test compounds were dispensed in a white 96-well plate. […] The mixture was incubated for 20 min at 37 °C. […] IC50 values were calculated with GraphPad Prism 8.0 using the nonlinear regression, variable slope (four parameters). Compounds were tested in triplicate.
# [1] = test system: maturation of the PMX substrate SUB1 (p54 to p47); test: Western blot of SUB1 maturation in treated schizonts; assay type: cell-based, P. falciparum; settings: 20 nM, 44 h
# Description: This phenotype is characteristic of the inhibition of PMX.
# (§2) Synchronous parasite cultures were cultured from ring to schizont stage (∼44 h) in the presence of DMSO alone (0.04% v/v; control) or macrocycle compounds (20 nM final concentration). Schizonts were isolated by Percoll enrichment (still in the presence of the test compound), then either immediately frozen or further incubated in the absence of the drug but in the presence of C2 (1 μM) for 1 h at 37°C in the absence of added RBCs or for 3.5 h in the presence of added RBCs. The schizonts without added RBCs were then frozen too, and all schizont samples were then thawed into CHAPS–urea extraction buffer, subjected to sodium dodecyl sulfate-polyacrylamide gel electrophoresis (SDS-PAGE), and analyzed by Western blot, probing with antibodies against SUB1 or RAP1. For schizonts cultured in the presence of added RBCs, ring formation was assessed in two ways: cultures were examined microscopically by Giemsa stain of thin films and were also fixed with glutaraldehyde and processed for quantification of ring formation by flow cytometry as described above.
# [2] = Liver microsomal metabolic stability; assay type: in vitro ADME, mouse; settings: pooled liver microsomes, pH 7.4, mouse liver microsomes, 5 μM; for microsomal CLint at 1 h, 5 μM: read-out: microsomal stability CL(int)
# Description: Microsomal stability assays are performed as described elsewhere.[41] Test compounds and pooled mouse liver microsomes are incubated in potassium phosphate buffer in the presence of the cofactor NADPH at 37 °C. Reaction mixtures (700 μL) contain a final concentration of 5 μM test compound, 0.05% DMSO, 0.5 mg/mL microsomes, and ∼0.7–0.9 mM NADPH in 100 mM potassium phosphate buffer at pH 7.4. Reactions are terminated by the addition of 100 μL of the reaction mixture to 900 μL of acetonitrile after 0, 5, 15, 30, 45, and 60 min of incubation. Samples were centrifuged, and the resultant supernatant was analyzed by ultra-performance liquid chromatography–tandem mass spectrometry (UPLC-MS/MS). The amount of remaining compound is calculated and compared to the initial amount of test compound (zero time point). Verapamil is used as a positive control, and samples prepared without cofactor NADPH are used as a negative control (0 and 60 min). The in vitro metabolic stability parameters (half-life value (t1/2) and intrinsic clearance value (Clint)) are calculated from the slope of the Ln of concentration remaining vs the time curve.
# P. falciparum schizonts = test: Washout assay, schizont rupture and new ring formation; assay type: cell-based; settings: 20 nM ∼44 h, […] with added RBCs
# Description: (§3) The schizont cultures lacking added RBCs were supplemented with compound C2, which blocks the discharge of exonemes, the parasite secretory organelles in which PMX and SUB1 are stored before egress. The schizonts without added RBCs were sampled for Western blot analysis, while the schizont cultures containing RBCs were examined by microscopy and flow cytometry after a further 4 h in culture to quantify schizont rupture and new ring formation.
# as §2
# [3] = test system: maturation of RAP1, substrate of PMIX; test: Western blot of RAP1 maturation in treated schizonts; assay type: cell-based, P. falciparum; settings: 20 nM, 44 h
# Source text: Figure 4 Macrocycle PMX inhibitors have no effect on intraerythrocytic parasite maturation but prevent egress and maturation of SUB1. […] Scale bar, 20 μm. (B) Simplified schematic of proteolytic maturation of the egress effector SUB1. Conversion of the precursor form to p54 is through autocatalytic removal[32] of the prodomain region (PD), whereas conversion of p54 to p47 is mediated by PMX.[15],[16],[33] (C) Left, Western blot analysis of P. falciparum 3D7 schizonts allowed to mature in the presence of the indicated macrocycle compounds (20 nM), showing defective SUB1 maturation in parasites treated with the indicated macrocycle compounds. Right, Western blot of the same extracts probed with a monoclonal antibody (mAb) specific to the rhoptry protein RAP1, which is a substrate for cleavage by the related P. falciparum protease PMIX. The compounds had no discernible effect on the maturation of RAP1. The results shown are typical of 3 independent experiments.
# as §2
# [4] = test system: SUB1 p54 to p47 conversion (PMX activity); test: Washout assay, SUB1 maturation by Western blot; assay type: cell-based, P. falciparum; settings: 20 nM ∼44 h, C2 1 μM for 1 h
# Description: as §3, §2
# [5] = test system: P. falciparum 3D7 parasites; test: Microscopy of synchronized P. falciparum cultures treated from ring stage (development and egress); assay type: cell-based; settings: 20 nM
# Description: Asexual blood-stage forms of P. falciparum strains 3D7 and Dd2 were maintained at 37 °C in an atmosphere of 1% O2, 5% CO2, and 94% N2 in human RBCs in RPMI 1640 medium containing AlbuMAX II (Thermo Fisher Scientific) and supplemented with 2 mM L-glutamine. The synchronization of parasite cultures was as described previously.[39] Briefly, this involved isolating mature schizont forms by centrifugation over cushions of 70% (v/v) isotonic Percoll (GE Healthcare, Life Sciences) and then allowing the parasites to undergo rupture in the presence of fresh RBCs for 2 h under gentle shaking conditions (100 rpm). Residual schizonts were then removed through a second Percoll separation, followed by treatment with 5% (w/v) sorbitol to finally obtain a highly synchronized preparation of newly invaded ring-stage parasites.
# Growth stage progression and parasite morphology were also monitored by microscopic examination at selected time points using Giemsa-stained thin blood films.
# cathepsin D (CatD) = cathepsin D (CatD) (Homo sapiens, UniProt P07339); test: FRET-based CatD inhibition assay (selectivity counter screen); assay type: biochemical
# Description: as §1
# [6] = Plasma protein binding (rapid equilibrium dialysis); assay type: in vitro ADME; settings: pH 7.4, mouse plasma, 2 h at 37 °C
# Description: Plasma protein binding was performed with rapid equilibrium dialysis (RED) device inserts containing a dialysis membrane with a molecular weight cut-off of 8000 Daltons. Inserts were placed in the single-use RED plate without prior preparation.
# The test compound at a concentration of 5 μM was added to mouse plasma and dialyzed against phosphate-buffered saline (PBS, pH 7.4) for 2 h at 37 °C. Propranolol hydrochloride was used as a positive control (high PPB), and fluconazole was used as negative control (low PPB). After dialysis, the drug concentration in the buffer and plasma compartments was quantified by liquid chromatography and tandem mass spectrometry (LC-MS/MS) analysis.
# [7] = target: recombinant P. falciparum PMX (Plasmodium falciparum, UniProt Q8IAS0); test: Recombinant P. falciparum PMX inhibition assay (fluorogenic substrate Rh2N); assay type: biochemical
# Description: The fluorescence of this peptide is quenched by the spatial proximity of the DABCYL/EDANS groups in the uncleaved peptide and is increased upon cleavage at the internal F–I bond. […] Control wells contained no inhibitor, and the plate was blanked against the substrate only in DB. […] All experiments were performed in duplicate.
# BACE1 = BACE1 (Homo sapiens, UniProt P56817); test: FRET-based BACE1 inhibition assay (selectivity counter screen); assay type: biochemical
# Description: as §1
# [8] = recombinant PMX, read-out: PMX, nM (IC50)
# Sequence of PMIV (Q8IM16 122-449): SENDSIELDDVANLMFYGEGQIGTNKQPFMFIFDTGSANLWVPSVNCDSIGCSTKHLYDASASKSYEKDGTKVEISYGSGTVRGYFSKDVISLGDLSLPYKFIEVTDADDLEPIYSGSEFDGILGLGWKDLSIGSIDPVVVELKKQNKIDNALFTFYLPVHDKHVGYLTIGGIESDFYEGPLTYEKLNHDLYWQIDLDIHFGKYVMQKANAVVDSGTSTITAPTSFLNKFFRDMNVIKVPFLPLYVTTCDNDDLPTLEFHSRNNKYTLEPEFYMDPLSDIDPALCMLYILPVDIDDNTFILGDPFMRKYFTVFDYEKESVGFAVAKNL
# Sequence of recombinant P. falciparum PMX (Q8IAS0 222-573): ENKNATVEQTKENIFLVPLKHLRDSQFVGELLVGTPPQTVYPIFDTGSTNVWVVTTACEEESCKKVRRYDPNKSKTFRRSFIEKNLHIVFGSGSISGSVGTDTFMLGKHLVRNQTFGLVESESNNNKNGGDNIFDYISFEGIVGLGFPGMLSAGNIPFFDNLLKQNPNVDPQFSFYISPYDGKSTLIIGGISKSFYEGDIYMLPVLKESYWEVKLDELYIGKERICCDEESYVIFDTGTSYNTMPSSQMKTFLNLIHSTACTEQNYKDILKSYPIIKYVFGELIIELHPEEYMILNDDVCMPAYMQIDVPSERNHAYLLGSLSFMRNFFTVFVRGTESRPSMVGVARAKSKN
# Sequence of BACE1 (P56817 46-501): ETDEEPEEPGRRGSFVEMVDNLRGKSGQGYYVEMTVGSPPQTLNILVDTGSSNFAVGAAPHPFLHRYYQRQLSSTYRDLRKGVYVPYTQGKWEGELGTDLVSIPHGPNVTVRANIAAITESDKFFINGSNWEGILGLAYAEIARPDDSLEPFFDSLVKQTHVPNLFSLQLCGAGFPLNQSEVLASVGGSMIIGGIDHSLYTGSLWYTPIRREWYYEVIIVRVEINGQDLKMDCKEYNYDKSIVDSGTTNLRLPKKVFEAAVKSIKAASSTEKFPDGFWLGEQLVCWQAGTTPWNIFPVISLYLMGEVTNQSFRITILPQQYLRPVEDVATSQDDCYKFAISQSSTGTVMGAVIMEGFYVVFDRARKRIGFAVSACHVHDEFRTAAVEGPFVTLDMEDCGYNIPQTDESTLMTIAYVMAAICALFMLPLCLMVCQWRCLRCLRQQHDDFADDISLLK
# Sequence of cathepsin D (CatD) (P07339 65-412): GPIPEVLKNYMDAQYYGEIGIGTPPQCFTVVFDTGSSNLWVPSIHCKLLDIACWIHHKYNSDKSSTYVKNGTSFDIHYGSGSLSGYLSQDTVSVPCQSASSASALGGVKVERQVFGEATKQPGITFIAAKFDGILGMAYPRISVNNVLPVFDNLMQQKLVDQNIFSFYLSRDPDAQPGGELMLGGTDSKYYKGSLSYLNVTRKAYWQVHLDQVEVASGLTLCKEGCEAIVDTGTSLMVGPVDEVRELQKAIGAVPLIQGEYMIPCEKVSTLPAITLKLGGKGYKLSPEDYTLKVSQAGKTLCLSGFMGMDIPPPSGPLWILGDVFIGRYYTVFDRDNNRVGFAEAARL
Structure (SMILES),"IC50 (PMIV; read-out: PMIV, nM (IC50)) [nM]",maturation of SUB1 (p54 to p47) [1],"half-life at 1 h, 5 μM [2] [min]","microsomal CLint at 1 h, 5 μM [2] [µL/min/mg]",new ring formation after washout (P. falciparum schizonts),maturation of RAP (PMIX substrate) [3],SUB1 p54 to p47 conversion after washout [4],intraerythrocytic development of ring-stage parasites to schizont stage ([5]; 44 h),schizont rupture (egress) and appearance of new rings ([5]; 44 h and extended incubation),IC50 (cathepsin D (CatD)) [nM],"fraction unbound at 2 h, 5 µM [6]","IC50 [7, 8] [nM]",IC50 (BACE1) [nM],"IC50 (PMIV; Table 3, read-out: PMIV, nM (as listed in Table 3)) [nM]","IC50 ([7]; Table 3, read-out: PMX, nM (as listed in Table 3)) [nM]"
"CCCN1CCCCOc2cccc(c2)C[C@@H]([C@H](O)CNC(C)(C)c2cccc(OC)c2)NC(=O)c2cccc(c2)C1=O [7a, (S)-4-((R)-1-Hydroxy-2-((2-(3-methoxyphenyl)propan-2-yl)amino)ethyl)-12-propyl-7-oxa-3,12-diaza-1,6(1,3)-dibenzenacyclotridecaphane-2,13-dione]",60 ± 3,clear defect in maturation of the PMX substrate SUB1,8.67,160,allowed an efficient generation of new rings,do not affect PMIX activity at these concentrations,efficient conversion of the accumulated SUB1 p54 intermediate to the p47 form,Development of ring-stage parasites to the multinucleated schizont stage occurred similarly in all cultures,schizont rupture and appearance of new rings did not occur,270 ± 20,0.029,4.1 ± 0.3,380 ± 20,–,–
"CCCN1CCCCc2cccc(c2)C[C@@H]([C@H](O)CNC(C)(C)c2cccc(OC)c2)NC(=O)c2cccc(c2)C1=O [7j, (S)-4-((R)-1-Hydroxy-2-((2-(3-methoxyphenyl)propan-2-yl)amino)ethyl)-11-propyl-3,11-diaza-1,6(1,3)-dibenzenacyclododecaphane-2,12-dione]",74 ± 4,clear defect in maturation of the PMX substrate SUB1,14.4,96.4,allowed an efficient generation of new rings,do not affect PMIX activity at these concentrations,efficient conversion of the accumulated SUB1 p54 intermediate to the p47 form,–,–,1370 ± 70,0.0067,3.8 ± 0.69,3020 ± 150,74 ± 4,3.8 ± 0.69
